Experimental data published in PubChem BioAssay (NCI).
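In this assay, cells in 96-well plates receive the compound at five concentrations for 48 hours. Endpoints are linearly interpolated between the surrounding concentrations. The concentration for full growth arrest is given as TGI.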

Key:
Experiment in all cases: inhibition of tumour cell growth, NCI panel, 48 h
[1] = tested on: 786-0 renal
[2] = tested on: A498 renal
[3] = tested on: A549 NSCLC
[4] = tested on: ACHN renal
[5] = tested on: CCRF-CEM leukemia
[6] = tested on: COLO 205 colon
[7] = tested on: DLD-1 colon
[8] = tested on: DMS 114 small cell lung
[9] = tested on: DMS 273 small cell lung
[10] = tested on: EKVX NSCLC
[11] = tested on: HCC-2998 colon
[12] = tested on: HCT-116 colon
[13] = tested on: HL-60(TB) leukemia
[14] = tested on: HOP-92 NSCLC
[15] = tested on: HT29 colon
[16] = tested on: IGROV1 ovarian
[17] = tested on: K-562 leukemia
[18] = tested on: KM12 colon
[19] = tested on: KM20L2 colon
[20] = tested on: LOX IMVI melanoma
[21] = tested on: LXFL 529 NSCLC
[22] = tested on: M14 melanoma
[23] = tested on: M19-MEL melanoma
[24] = tested on: MOLT-4 leukemia
[25] = tested on: NCI-H23 lung
[26] = tested on: NCI-H460 lung
[27] = tested on: NCI-H522 lung
[28] = tested on: OVCAR-3 ovarian
[29] = tested on: OVCAR-4 ovarian
[30] = tested on: OVCAR-5 ovarian
[31] = tested on: OVCAR-8 ovarian
[32] = tested on: RPMI-8226 leukemia
[33] = tested on: RXF 393 renal
[34] = tested on: SF-268 CNS
[35] = tested on: SF-295 CNS
[36] = tested on: SF-539 CNS
[37] = tested on: SK-MEL-28 melanoma
[38] = tested on: SK-MEL-5 melanoma
[39] = tested on: SK-OV-3 ovarian
[40] = tested on: SN12C renal
[41] = tested on: SNB-19 CNS
[42] = tested on: SNB-75 CNS
[43] = tested on: SNB-78 CNS
[44] = tested on: SR leukemia
[45] = tested on: SW-620 colon
[46] = tested on: TK-10 renal
[47] = tested on: U251 CNS
[48] = tested on: UACC-257 melanoma
[49] = tested on: UACC-62 melanoma
[50] = tested on: UO-31 renal
[51] = tested on: XF 498 CNS
[52] = tested on: HCT-15 colon
[53] = tested on: HOP-18 NSCLC
[54] = tested on: HOP-62 NSCLC
[55] = tested on: MALME-3M melanoma
[56] = tested on: NCI-H226 lung
[57] = tested on: SK-MEL-2 melanoma
[58] = tested on: BT-549 breast
[59] = tested on: CAKI-1 renal
[60] = tested on: DU-145 prostate
[61] = tested on: HS 578T breast
[62] = tested on: MCF7 breast
[63] = tested on: MDA-MB-231 breast
[64] = tested on: MDA-MB-435
[65] = tested on: MDA-N
[66] = tested on: NCI/ADR-RES ovarian
[67] = tested on: PC-3 prostate
[68] = tested on: T-47D breast

Measured: TGI

[O-]c1on[n+]2c1c(Nc1ccc(Cl)cc1)nc1ccccc12
not listed: [52] | [53] | [54] | [55] | [56] | [57] | [58] | [59] | [60] | [61] | [62] | [63] | [64] | [65] | [66] | [67] | [68]
> 100 µM: all other assays above

CC(=O)c1cccc(NCn2nnc3ccccc32)c1
not listed: [30] | [38] | [43] | [58] | [59] | [60] | [61] | [62] | [63] | [64] | [65] | [66] | [67] | [68]
> 100 µM: all other assays above

COc1ccc(CSc2nc3ccccc3nc2-c2cccs2)cc1
> 100 µM: [1] | [3] | [4] | [6] | [8] | [9] | [10] | [12] | [13] | [53] | [14] | [15] | [17] | [22] | [55] | [24] | [25] | [28] | [29] | [31] | [32] | [34] | [35] | [36] | [37] | [39] | [40] | [41] | [42] | [43] | [47] | [48] | [50] | [51]
76.3 µM: [5]

O=C(O)c1cc2c(s1)C(=O)c1sccc1C2=O
16.4 µM: [34]
17.7 µM: [53]
33.6 µM: [11]
7.91 µM: [62]
0.806 µM: [55]
5.91 µM: [61]
33.1 µM: [5]
16.1 µM: [29]
38.4 µM: [63]
4.81 µM: [12]
23.4 µM: [30]
36 µM: [46]
11.2 µM: [8]
17.1 µM: [41]
21.1 µM: [18]
35.4 µM: [51]
28.6 µM: [24]
16.9 µM: [33]
3.04 µM: [20]
15.6 µM: [28] | [47]
11.9 µM: [52]
15.2 µM: [17]
31.2 µM: [2]
4.71 µM: [25]
30.9 µM: [16]
3.85 µM: [36]
41.4 µM: [39]
43.5 µM: [67]
18.1 µM: [1]
6.03 µM: [57]
33 µM: [26]
35.3 µM: [19]
5.85 µM: [60]
16 µM: [50]
30.5 µM: [10]
18.5 µM: [66]
3.45 µM: [37]
11.6 µM: [54]
32.7 µM: [6]
2.91 µM: [22]
6.85 µM: [40]
6.27 µM: [48]
30.1 µM: [14]
5.28 µM: [45]
1.68 µM: [64] | [65]
37.1 µM: [56]
25.1 µM: [4]
8.38 µM: [44]
5.25 µM: [35]
19 µM: [13] | [15]
17.3 µM: [68]
8.39 µM: [3]
22.8 µM: [9]
31.8 µM: [59]
8.58 µM: [27]
27.7 µM: [7]
14.6 µM: [31]
2.49 µM: [23]
4.56 µM: [49]
3.78 µM: [58]
3.37 µM: [42]
3.32 µM: [38]
0.909 µM: [43]
41.7 µM: [32]
